Assay results as given in patent US20230183237A1, “COMPETITIVE AND NONCOMPETITIVE INHIBITORS OF THE MUSCARINIC ACETYLCHOLINE RECEPTOR M5” (Vanderbilt University, priority 2020, published 2023).
Read-outs that look alike come from different tables or passages of the source.

Target: T1, hM5 (Homo sapiens, UniProt P08912)
T1 construct: expressed in transfected cells
T1 sequence (P08912 1-532): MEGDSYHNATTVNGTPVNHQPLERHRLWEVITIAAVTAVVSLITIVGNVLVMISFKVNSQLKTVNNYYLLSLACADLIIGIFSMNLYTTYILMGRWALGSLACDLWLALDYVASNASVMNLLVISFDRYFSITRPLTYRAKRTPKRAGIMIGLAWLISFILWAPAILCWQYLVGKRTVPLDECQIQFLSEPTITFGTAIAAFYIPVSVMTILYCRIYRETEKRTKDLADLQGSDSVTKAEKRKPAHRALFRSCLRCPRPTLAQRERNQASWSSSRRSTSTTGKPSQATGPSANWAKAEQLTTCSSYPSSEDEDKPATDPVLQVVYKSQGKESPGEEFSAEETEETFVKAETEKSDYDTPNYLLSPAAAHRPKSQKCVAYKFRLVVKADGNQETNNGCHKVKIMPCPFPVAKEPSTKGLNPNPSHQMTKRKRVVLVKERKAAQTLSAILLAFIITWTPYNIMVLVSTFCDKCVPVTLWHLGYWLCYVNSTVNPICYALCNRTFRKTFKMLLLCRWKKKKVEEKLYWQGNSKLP
Test: Calcium mobilization concentration-response (IC50 vs EC80 acetylcholine), CHO hM5
Format: cell-based
Details: CELL LINE hM5, read-out: IC50
Summary of the method: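 CHO cells stably expressing hM5, dye-loaded, in HBSS/20 mM HEPES/2.5 mM probenecid, pH 7.4. Compounds were pre-incubated 140 s before an EC80 acetylcholine challenge, with calcium flux read kinetically.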

[1] = calcium mobilization, EC80 acetylcholine addition

SMILES | IC50 (vs EC80 acetylcholine) [nM] | IC50 [1] [nM]
CCc1cc2ncnn2cc1C1CCN(S(=O)(=O)c2cnn3c2CCCC3)CC1 [Compound 302, 7-ethyl-6-(1-((4,5,6,7-tetrahydropyrazolo[1,5-a]pyridin-3-yl)sulfonyl)piperidin-4-yl)-[1,2,4]triazolo[1,5-a]pyridine] |  | 54
Cc1cc2ncnn2cc1C1=CCN(S(=O)(=O)c2cc3c(cc2F)OCC3)CC1 [Compound 46, 6-(1-((6-fluoro-2,3-dihydrobenzofuran-5-yl)sulfonyl)-1,2,3,6-tetrahydropyridin-4-yl)-7-methyl-[1,2,4]triazolo[1,5-a]pyridine] |  | 2700
O=S(=O)(c1cnc2n1CCCC2)N1CCC(c2cn3ncnc3cc2C(F)(F)F)CC1 [Compound 339, 6-(1-((5,6,7.8-tetrahydroimidazo[1,2-a]pyridin-3-yl)sulfonyl)piperidin-4-yl)-7-(trifluoromethyl)-[1,2,4]triazolo[1,5-a]pyridine] |  | 67
COc1ccc(S(=O)(=O)N2CCC(c3cn4ncnc4cc3C)CC2)cc1C(F)(F)F [Compound 130, 6-(1-((4-methoxy-3-(trifluoromethyl)phenyl)sulfonyl)piperidin-4-yl)-7-methyl-[1,2,4]triazoto[1,5-a]pyridine] |  | > 10000
Cc1cc2nccn2nc1C1CCN(S(=O)(=O)c2c(C)nn(C)c2Cl)CC1 [Compound 248, 6-(1-((5-chloro-1,3-dimethyl-1-pyrazol-4-yl)sulfonyl)piperidin-4-yl)-7-methylimidazo[1,2-b]pyridazine] |  | 69
COc1ccc(S(=O)(=O)N2CCC(c3nn4ncnc4cc3C)CC2)c(C)c1 [Compound 186, 6-(1-((4-methoxy-2-methylphenyl)sulfonyl)piperidin-4-yl)-7-methyl-[1,2,4]triazolo[1,5-b]pyridazine] |  | > 10000
Cc1cc2ncnn2cc1C1CCN(S(=O)(=O)c2cccc3c2OCCO3)CC1 [Compound 152, 6-(1-((2,3-dihydrobenzo[b]dioxin-5-yl)sulfonyl)piperidin-4-yl)-7-methyl-[1,2,4]triazolo[1,5-a]pyridine] |  | 117
Cc1cc(C#N)ncc1C1=CCN(S(=O)(=O)c2ccc3c(c2)CCO3)CC1 [Compound 240, 1′-((2,3-dihydrobenzofuran-5-yl)sulfonyl)-4-methyl-1′,2′,3′,6-tetrahydro-[3,4′-bipyridine]-6-carbonitrile] |  | > 10000
Cc1nn(C)c(Cl)c1S(=O)(=O)N1CCC(c2cn3ncnc3cc2C(F)(F)F)CC1 [Compound 275, 6-(1-((5-chloro-1,3-dimethyl-1H-pyrazol-4-yl)sulfonyl)piperidin-4-yl)-7-(trifluoromethyl)-[1,2,4]triazolo[1,5-a]pyridine] |  | 61
O=S(=O)(c1ccc2ncsc2c1)N1CCC(c2cc3[nH]ccc3cn2)CC1 [Compound 30, 6-((4-(1H-pyrrolo[3,2-c]pyridin-6-yl)piperidin-1-yl)sulfonyl)benzo[d]thiazole] |  | > 10000
Cc1cc(C(F)(F)F)ncc1C1CCN(S(=O)(=O)c2cnn(C)c2Cl)CC1 [Compound 395, 5-(1-((5-chloro-1-methyl-1H-pyrazol-4-yl)sulfonyl)piperidin-4-yl)-4-methyl-2-(triflu0romethyl)pyridine] |  | 1290
Cc1c(C2CCN(S(=O)(=O)c3ccc4c(c3)CCO4)CC2)nn2ccnc2c1C [Compound 45, 6-(1-((2,3-dihydrobenzofuran-5-yl)sulfonyl)piperidin-4-yl)-7,8-dimethylimidazo[1,2-b]pyridazine] |  | > 10000
Cc1cc2ncnn2cc1C1CCN(S(=O)(=O)c2ccc3c(c2F)C(C)CO3)CC1 (centres unmarked) [Compound 104, 6-(1-((4-fluoro-3-methyl-2,3-dihydrobenzofuran-5-yl)sulfonyl)piperidin-4-yl)-7-methyl-[1,2,4]triazolo[1,5-a]pyridine] |  | 114
Cc1cc2ncnn2cc1C1CCN(S(=O)(=O)c2cn(-c3ccccc3)nc2C)CC1 [Compound 102, 7-methyl-6-(1-((3-methyl-1-phenyl-1H-pyrazol-4-yl)sulfonyl)piperidin-4-yl)-[1,2,4]triazolo[1,5-a]pyridine] |  | > 10000
Cc1nc2[nH]cnc2cc1C1CCN(S(=O)(=O)c2cnn3c2CCC3)CC1 [Compound 289, 6-(1-((5,6-dihydro-4H-pyrrolo[1,2-b]pyrazol-3-yl)sulfonyl)piperidin-4-yl)-5-methyl-3H-imidazo[4,5-b]pyridine] |  | > 10000
Cc1nn(C)cc1S(=O)(=O)N1CCC(c2cn3ncnc3cc2F)CC1 [Compound 108, 6-(1-((1,3-dimethyl-1H-pyrazol-4-yl)sulfonyl)piperidin-4-yl)-7-fluoro-[1,2,4]triazolo[1,5-a]pyridine] |  | > 10000
O=S(=O)(c1cnn2c1CCCC2)N1CCC(c2ccc3ncnn3c2)CC1 [Compound 287, 6-(1-((4,5,6,7-tetrahydropyrazolo[1,5-a]pyridin-3-yl)sulfonyl)piperidin-4-yl)-[1,2,4]triazolo[1,5-a]pyridine] |  | 237

The remaining lines, values ahead:

IC50 (vs EC80 acetylcholine) [nM] | IC50 [1] [nM] | SMILES
59 |  | [2H]C([2H])([2H])Oc1c(S(=O)(=O)N2CCC(c3cn4ncnc4c(F)c3C)CC2)cnn1C [Compound 614, 8-fluoro-6-(1-((5-(methoxy-d3)-1-methyl-1H-pyrazol-4-yl)sulfonyl)piperidin-4-yl)-7-methyl-[1,2,4]triazolo[1,5-a]pyridine]
26 |  | Cc1cc(S(=O)(=O)N2CCC(c3cn4ncnc4cc3CF)CC2)sn1 [Compound 605, 5-((4-(7-(Fluoromethyl)-[1,2,4]triazolo[1,5-a]pyridin-6-yl)piperidin-1-yl)sulfonyl)-3-methylisothiazole]
58 |  | Cn1ncc(S(=O)(=O)N2CCC(c3cn4ncnc4cc3Cl)CC2)c1CC#N [Compound 406, 2-(4-((4-(7-chloro-[1,2,4]triazoto[1,5-a]pyridin-6-yl)piperidin-1-yl)sulfonyl)-1-methyl-1H-pyrazol-5-yl)acetonitrile]
22 |  | Cc1cc2nccn2nc1N1CCN(S(=O)(=O)c2cnn3c2CCC3)CC1 [Compound 435, 6-(4-((5,6-dihydro-4H-pyrrolo[1,2-b]pyrazol-3-yl)sulfonyl)piperazin-1-yl)-7-methylimidazo[1,2-b]pyridazine]
2360 |  | Cc1ncc(S(=O)(=O)N2CCC(c3cc4cccnc4cc3C)CC2)s1 [Compound 449, 2-methyl-5-((4-(7-methylquinolin-6-yl)piperidin-1-yl)sulfonyl)thiazole]
18 |  | Cc1cc2ncnn2cc1C1CCN(S(=O)(=O)c2cnn(C)c2C#N)CC1 [Compound 400, 1-Methyl-4-((4-(7-methyl-[1,2,4]triazolo[1,5-a]pyridin-6-yl)piperidin-1-yl)sulfonyl)-1H-pyrazole-5-carbonitrile]
655 |  | [2H]C([2H])([2H])Oc1c(S(=O)(=O)N2CCC(c3cn4ncnc4cc3F)CC2)cnn1C [Compound 616, 7-fluoro-6-(1-((5-(methoxy-d3)-1-methyl-1H-pyrazol-4-yl)sulfonyl)piperidin-4-yl)-[1,2,4]triazolo[1,5-a]pyridine]
228 |  | [2H]C1([2H])CC(c2cn3ncnc3cc2C(F)F)CC([2H])([2H])N1S(=O)(=O)c1cnc(C)o1 [Compound 594, 5-((4-(7-(difluoromethyl)-[1,2,4]triazolo[1,5-a]pyridin-6-yl)piperidin-1-yl-2,2,6,6-d4)sulfonyl)-2-methyloxazole]
1260 |  | Cn1ncc(S(=O)(=O)N2CCC(F)(c3cn4ncnc4cc3F)CC2)c1C(F)F [Compound 504, 6-(1-((5-(difluoromethyl)-1-methyl-1H-pyrazol-4-yl)sulfonyl)-4-fluoropiperidin-4-yl)-7-fiuoro-[1,2,4]triazolo[1,5-a]pyridine]
94 |  | Cc1ncc(S(=O)(=O)N2CCC(c3cnc(N(C)C)cc3C)CC2)s1 [Compound 552, N.N,4-trimethyl-5-(1-((2-methylthiazol-5-yl)sulfonyl)piperidin-4-yl)pyridin-2-amine]
2070 |  | Cc1ncc(S(=O)(=O)N2CCC(c3cn4ccnc4cc3C)CC2)s1 [Compound 583, 2-methyl-5-((4-(7-methylimidazo[1,2-a]pyridin-6-yl)piperidin-1-yl)sulfonyl)thiazole]
1540 |  | Cc1cc(F)c(F)cc1C1=CCN(S(=O)(=O)c2cnn(C)c2C)CC1 [Compound 404, 4-(4,5-difluoro-2-methylphenyl)-1-((1,5-dimethyl-1H-pyrazol-4-yl)sulfonyl)-1,2,3,6-tetrahydropyridine]
20 |  | [2H]C1([2H])CC(c2cn3ncnc3cc2F)CC([2H])([2H])N1S(=O)(=O)c1cnn2c1CCC2 [Compound 478, 6-(1-((5,6-dihydro-4H-pyrrolo[1,2-b]pyrazol-3-yl)sulfonyl)piperidin-4-yl-2,2,6,6-d4)-7-fluoro-[1,2,4]triazolo[1,5-a]pyridine]
1310 |  | O=S(=O)(c1cnn2c1CCC2)N1CCC(F)(c2cn3ncnc3cc2F)CC1 [Compound 505, 6-(1-((5,6-dihydro-4H-pyrrolo[1,2-b]pyrazol-3-yl)sulfonyl)-4-fluoropiperidin-4-yl)-7-fluoro-[1,2,4]triazolo[1,5-a]pyridine]
804 |  | Cc1cc2ncnn2cc1C1CCN(S(=O)(=O)c2cnn(C)c2-c2scnc2C)CC1 [Compound 598, 4-Methyl-5-(1-methyl-4-((4-(7-methyl-[1,2,4]triazolo[1,5-a]pyridin-6-yl)piperidin-1-yl)sulfonyl)-1H-pyrazo1-5-yl)thiazole]
